One experiment has as its system B lymphoma cells. As to the kind of experiment: In vitro lymphocyte survival and apoptosis assays (trypan blue dye exclusion). To be noted: B lymphoma cells from p80HT transgenic mice; doxorubicin 0.5 μg/ml. It is filed as cell-based, mouse. The procedure:
(§1) C-E: In vitro survival and apoptosis assays of splenic B cells and B lymphoma cells. Cells were either untreated (D) or treated with 0.5 μg/ml of doxorubicin (C) or with 20 μg/ml of LPS (E). Viability was determined by trypan blue dye exclusion assays. Data in (A-E) represent means±SD of cells from 5 mice of each genotype or from 58 lymphomas samples.
(§2) Purified splenic B cells and B lymphoma cells (10^5/well, 96-well plate) were cultured in DMEM supplemented with 10% FBS, 250 μM L-asparagine, and 50 μM 2-mercaptoethanol. Cells were either untreated or treated with recombinant mouse TNF-α (20 ng/ml, Calbiochem), Fas ligand (100 ng/ml, PeoproTech), LPS (20 μg/ml, Sigma), or doxorubicin (0.5 μg/ml, Ben Venue Laboratories), and viable cells were determined daily by trypan blue dye exclusion assays.

A further experiment has as its system splenic B cells. The description is as above. The conditions noted are these: for sensitivity of splenic B cells to death stimuli: both wild-type and p80HT splenic B cells, TNF-α 20 ng/ml, Fas ligand 100 ng/ml, doxorubicin 0.5 μg/ml. It is filed as cell-based, mouse. As to the method:
as §1, §2

Experimental findings from patent US20060117399A1, “Animal model for human lymphomas” (Medical University, priority 2004, published 2006) are described below.

On to `COc1cccc2c1C(=O)c1c(O)c3c(c(O)c1C2=O)C[C@@](O)(C(=O)CO)C[C@@H]3O[C@H]1C[C@H](N)[C@H](O)[C@H](C)O1` [doxorubicin], for which the “apoptosis induced by doxorubicin” value in the experiment on B lymphoma cells was “highly resistant”. Further, the “sensitivity of splenic B cells to death stimuli” value (from here on “sensitivity of splenic B cells”) with splenic B cells is on record as “equally sensitive”. In the case of TNF-a, the “sensitivity of splenic B cells” value in the experiment on splenic B cells is listed as “highly resistant”. As to lipopolysaccharide [LPS], the “apoptosis induced by the activation signal (LPS)” value with splenic B cells (p80HT splenic B cells, LPS 20 μg/ml) is on record as “highly resistant”. Also, the “response of splenic B cells to LPS” value with splenic B cells (splenic B cells generally, LPS 20 μg/ml, after about 3 days of proliferation) is listed as “extensive apoptosis”.

B1: Fas ligand: death ligand, 100 ng/ml, PeoproTech (protein, UniProt P48023 130-281, looked up)
Tumor necrosis factor ligand …: QIGHPSPPPEKKELRKVAHLTGKSNSRSMPLEWEDTYGIVLLSGVKYKKGGLVINETGLYFVYSKVYFRGQSCNNLPLSHKVYMRNSKYPQDLVMMEGKMMSYCTTGQMWARSSYLGAVFNLTSADHLYVNVSELSLVNFEESQTFFGLYKL
As to B1, in the experiment with splenic B cells, the “sensitivity of splenic B cells” value is reported as “highly resistant”.
